Measurements published in patent US11014890B2, “Forms of (R)-N-(4-chlorophenyl)-2-(cis-4-(6-fluoroquinolin-4-yl)cyclohexyl)propanamide” (SHENZHEN RENTAI PHARMATECH LTD, priority 2018, dated 2021).

How the values were obtained:
Type in all cases: physicochemical
[1] = light stability test (XRPD comparison); conditions: 25° C. and 4500 lux of light, 5 d and 10 d; XRPD FIGS. 11, 12 and 27
Procedure: (§1) X-Ray Powder Diffractometer (XRPD)
(§2) Model: Bruker, Germany, BRUKER D8 DISCOVER
(§3) Method: Cu target Ka, voltage 40 KV, current 40 mA, test angle 3-45°, step size 0.02, exposure time 0.2 S, light pipe slit width 1 mm, detector slit width 2.7 mm.
Model: Shanghai Yiheng Scientific Instrument Co., Ltd., MGC-100
(§4) The products prepared in Embodiment 1 and Embodiment 6, and the amorphous active pharmaceutical ingredient were respectively subjected to experimental tests for light stability, high-temperature stability, accelerated stability, high-humidity stability, and water adsorption.
(1) The test products were respectively placed under 25° C. and 4500 lux of light and tested for 5 d and 10 d stability, and the results are shown in FIGS. 11, 12 and 27.

[2] = high-temperature stability test (XRPD comparison); conditions: 60° C., 5 d and 10 d; XRPD FIGS. 13, 14 and 28
Procedure: as §1, §2, §3
Electrothermal Constant-Temperature Dry Box
(§5) Model: DHG-9011A (Shanghai Jinghong Experimental Equipment Co., Ltd.) Programmable drug stability constant temperature and humidity tester
as §4
(2) The test products were respectively placed under 60° C. and tested for 5 d and 10 d stability, and the results are shown in FIGS. 13, 14 and 28.

[3] = accelerated stability test (XRPD comparison); conditions: 40° C. and humidity of 75% RH; XRPD FIGS. 15, 16 and 29
Procedure: as §1, §2, §3, §5
Model: CMA-100C (Shanghai Puhan Precision Equipment Co., Ltd.)
as §4

[4] = high-humidity stability test (XRPD comparison); conditions: 25° C. and humidity of 92.5% RH; XRPD FIGS. 32, 33 and 34
Procedure: as §1, §2, §3, §4

[5] = water adsorption test (DVS); conditions: 25° C., humidity 0-90, 10% per step, weight change less than 0.002% in each step of 10 minutes; FIGS. 17, 18 and 30
Procedure: DVS Model: SMS, U.K, DVS intrinsic Method: 25° C., 10% humidity per step, the judgment standard is less than 0.002% for 10 min The products prepared in Embodiment 1 and Embodiment 6, and the amorphous active pharmaceutical ingredient were respectively subjected to experimental tests for light stability, high-temperature stability, accelerated stability, high-humidity stability, and water adsorption. (5) The test products were respectively subjected to the water adsorption test, the experimental conditions were as follows: 25° C., humidity 0-90, 10% per step, and the weight change was less than 0.002% in each step of 10 minutes.

light stability [1] | high-temperature stability [2] | accelerated stability [3] | high-humidity stability [4] | water adsorption (hygroscopic curve, DVS) [5] | SMILES
good stability | good stability | good stability | good stability | do not adsorb water | C[C@@H](C(=O)Nc1ccc(Cl)cc1)[C@H]1CC[C@@H](c2ccnc3ccc(F)cc32)CC1 [Form C, (R)—N-(4-chlorophenyl)-2-(cis-4-(6-fluoroquinolin-4-yl)cyclohexyl)propanamide]
good stability | good stability | good stability | good stability | do not adsorb water | C[C@@H](C(=O)Nc1ccc(Cl)cc1)[C@H]1CC[C@@H](c2ccnc3ccc(F)cc32)CC1 [Form B, (R)—N-(4-chlorophenyl)-2-(cis-4-(6-fluoroquinolin-4-yl)cyclohexyl)propanamide]
good stability | good stability | good stability | good stability | large hygroscopicity | C[C@@H](C(=O)Nc1ccc(Cl)cc1)[C@H]1CC[C@@H](c2ccnc3ccc(F)cc32)CC1 [amorphous active pharmaceutical ingredient] [(R)—N-(4-chlorophenyl)-2-(cis-4-(6-fluoroquinolin-4-yl)cyclohexyl)propanamide, reference compound]
